These results are taken from patent US10052320B2, “Substituted quinoxalines as FGFR kinase inhibitors” (ASTEX THERAPEUTICS LIMITED, priority 2011, dated 2018).

The target of data set [1] is FGFR4 (h) (Homo sapiens, UniProt P22455). The experiment in a line: FGFR4 (enzymatic assay), TR-FRET. Type of data set: biochemical. Conditions: read-out: FGFR 4 pIC50 (converted). On the procedure: In a final reaction volume of 30 μL, FGFR4 (h) (60 ng/ml) was incubated with 50 mM HEPES pH 7.5, 6 mM MnCl2, 1 mM DTT, 0.1 mM Na3VO4, 0.01% Triton-X-100, 500 nM Btn-Flt3 and 5 μM ATP in the presence of compound (1% DMSO final). […] Time-Resolved Fluorescence Resonance Energy Transfer (TR-FRET) signal (ex340 nm. Em 620 nm, em 655 nm) was measured afterwards and results are expressed in RFU (Relative Fluorescence Units).
Sequence of FGFR4 (h) (P22455 22-802): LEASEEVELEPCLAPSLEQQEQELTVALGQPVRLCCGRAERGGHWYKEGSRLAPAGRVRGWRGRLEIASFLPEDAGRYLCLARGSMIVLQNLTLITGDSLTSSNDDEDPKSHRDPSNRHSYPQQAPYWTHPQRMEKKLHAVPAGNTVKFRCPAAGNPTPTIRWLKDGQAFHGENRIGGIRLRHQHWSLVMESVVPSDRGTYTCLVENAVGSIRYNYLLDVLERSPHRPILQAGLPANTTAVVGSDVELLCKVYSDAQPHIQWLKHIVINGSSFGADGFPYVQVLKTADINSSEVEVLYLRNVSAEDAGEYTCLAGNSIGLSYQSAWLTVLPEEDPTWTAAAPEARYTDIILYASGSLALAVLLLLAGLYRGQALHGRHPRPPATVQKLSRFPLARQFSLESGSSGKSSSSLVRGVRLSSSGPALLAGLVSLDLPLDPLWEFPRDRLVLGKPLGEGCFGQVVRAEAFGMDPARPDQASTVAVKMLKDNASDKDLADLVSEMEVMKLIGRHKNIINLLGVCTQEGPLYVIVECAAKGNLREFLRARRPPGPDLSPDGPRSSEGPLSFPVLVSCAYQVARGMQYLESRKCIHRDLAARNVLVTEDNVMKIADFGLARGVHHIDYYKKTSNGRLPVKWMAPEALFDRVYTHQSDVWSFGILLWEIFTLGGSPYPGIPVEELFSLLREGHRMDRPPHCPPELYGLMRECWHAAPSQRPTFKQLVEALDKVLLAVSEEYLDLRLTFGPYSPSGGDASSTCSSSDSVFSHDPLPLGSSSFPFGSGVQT
On the technique in general: Time-resolved FRET reads energy transfer from a long-lived donor to a nearby acceptor.

In data set [2] the target is Ba/F3-FGFR1-transfected cells (Homo sapiens, UniProt P11362). The experiment in a line: Ba/F3-FGFR1 (minus IL3) cellular proliferation assay, Alamar Blue. Type of data set: cell-based. As to conditions: for BAF3-FGFR 1 (MIN IL3) 384 well pIC50: minus IL3, 384 well. As to the method:
Ba/F3-FGFR1 (Minus IL3 or Plus IL3) (Cellular Proliferation Assay)
Cells were put in an incubator at 37° C. and 5% CO2. After 24 hours, 10 μl of Alamar Blue solution (0.5 mM K3Fe(CN)6, 0.5 mM KaFe(CN)6, 0.15 mM Resazurin and 100 mM Phosphate Buffer) was added to the wells, incubated for 4 hours at 37° C. and 5% CO2 before RFU's (Relative Fluorescence Units) (ex. 540 nm., em. 590 nm.) were measured in a flurorescence plate reader. […]
In a 96 well plate, 180 μl cell culture medium (phenol red free RPMI-1640, 10% FBS, 2 mM L-Glutamine and 50 μg/ml Gentamycin) containing 10000 cells per well of Ba/F3-FGFR1-transfected cells were pipette and 20 μl of compound dilution in DMSO was added. Cells were put in an incubator at 37° C. and 5% CO2. After 24 hours, 40 μl of Alamar Blue solution (0.5 mM K3Fe(CN)6, 0.5 mM KaFe(CN)6, 0.15 mM Resazurin and 100 mM Phosphate Buffer) was added to the wells, incubated for 4 hours at 37° C. and 5% CO2 before RFU's (Relative Fluorescence Units) (ex. 540 nm., em. 590 nm.) were measured in a flurorescence plate reader.

Data set [3] deals with FGFR1 (h) (Homo sapiens, UniProt P11362). The data set is described as follows: FGFR1 (enzymatic assay), TR-FRET. Type of data set: biochemical. Conditions: read-out: FGFR 1 pIC50 (converted). As to the method: In a final reaction volume of 30 μL, FGFR1 (h) (25 ng/ml) was incubated with 50 mM HEPES pH 7.5, 6 mM MnCl2, 1 mM DTT, 0.1 mM Na3VO4, 0.01% Triton-X-100, 500 nM Btn-Flt3 and 5 μM ATP in the presence of compound (1% DMSO final). […] Time-Resolved Fluorescence Resonance Energy Transfer (TR-FRET) signal (ex340 nm. Em 620 nm, em 655 nm) was measured afterwards and results are expressed in RFU (Relative Fluorescence Units).
Sequence of FGFR1 (h) (P11362 22-822): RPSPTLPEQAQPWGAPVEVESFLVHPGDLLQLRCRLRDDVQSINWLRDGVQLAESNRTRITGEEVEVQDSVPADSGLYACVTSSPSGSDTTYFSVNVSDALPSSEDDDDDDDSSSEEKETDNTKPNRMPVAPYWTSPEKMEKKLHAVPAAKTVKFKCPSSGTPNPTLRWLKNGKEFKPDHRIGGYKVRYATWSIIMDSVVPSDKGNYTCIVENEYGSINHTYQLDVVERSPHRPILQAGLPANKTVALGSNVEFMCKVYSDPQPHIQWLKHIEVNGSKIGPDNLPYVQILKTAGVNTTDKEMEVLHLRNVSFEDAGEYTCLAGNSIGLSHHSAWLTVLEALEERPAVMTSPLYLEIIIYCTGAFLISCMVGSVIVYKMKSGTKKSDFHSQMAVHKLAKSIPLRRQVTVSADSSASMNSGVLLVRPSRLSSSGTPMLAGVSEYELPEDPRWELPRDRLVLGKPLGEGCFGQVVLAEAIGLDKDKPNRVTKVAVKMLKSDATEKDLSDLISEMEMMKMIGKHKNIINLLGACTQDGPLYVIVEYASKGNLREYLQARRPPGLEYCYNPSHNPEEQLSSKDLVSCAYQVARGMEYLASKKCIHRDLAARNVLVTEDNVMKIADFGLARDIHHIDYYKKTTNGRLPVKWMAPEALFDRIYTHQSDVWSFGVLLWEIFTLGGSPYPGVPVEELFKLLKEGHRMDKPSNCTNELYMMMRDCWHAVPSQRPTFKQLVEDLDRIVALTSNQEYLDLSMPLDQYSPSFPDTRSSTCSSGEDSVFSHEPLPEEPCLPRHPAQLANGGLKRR

Data set [4] deals with T1, Ba/F3-Flt3-transfected cells (Homo sapiens, UniProt P36888, cells depend on it, form not given).
T1 sequence (P36888 1-993): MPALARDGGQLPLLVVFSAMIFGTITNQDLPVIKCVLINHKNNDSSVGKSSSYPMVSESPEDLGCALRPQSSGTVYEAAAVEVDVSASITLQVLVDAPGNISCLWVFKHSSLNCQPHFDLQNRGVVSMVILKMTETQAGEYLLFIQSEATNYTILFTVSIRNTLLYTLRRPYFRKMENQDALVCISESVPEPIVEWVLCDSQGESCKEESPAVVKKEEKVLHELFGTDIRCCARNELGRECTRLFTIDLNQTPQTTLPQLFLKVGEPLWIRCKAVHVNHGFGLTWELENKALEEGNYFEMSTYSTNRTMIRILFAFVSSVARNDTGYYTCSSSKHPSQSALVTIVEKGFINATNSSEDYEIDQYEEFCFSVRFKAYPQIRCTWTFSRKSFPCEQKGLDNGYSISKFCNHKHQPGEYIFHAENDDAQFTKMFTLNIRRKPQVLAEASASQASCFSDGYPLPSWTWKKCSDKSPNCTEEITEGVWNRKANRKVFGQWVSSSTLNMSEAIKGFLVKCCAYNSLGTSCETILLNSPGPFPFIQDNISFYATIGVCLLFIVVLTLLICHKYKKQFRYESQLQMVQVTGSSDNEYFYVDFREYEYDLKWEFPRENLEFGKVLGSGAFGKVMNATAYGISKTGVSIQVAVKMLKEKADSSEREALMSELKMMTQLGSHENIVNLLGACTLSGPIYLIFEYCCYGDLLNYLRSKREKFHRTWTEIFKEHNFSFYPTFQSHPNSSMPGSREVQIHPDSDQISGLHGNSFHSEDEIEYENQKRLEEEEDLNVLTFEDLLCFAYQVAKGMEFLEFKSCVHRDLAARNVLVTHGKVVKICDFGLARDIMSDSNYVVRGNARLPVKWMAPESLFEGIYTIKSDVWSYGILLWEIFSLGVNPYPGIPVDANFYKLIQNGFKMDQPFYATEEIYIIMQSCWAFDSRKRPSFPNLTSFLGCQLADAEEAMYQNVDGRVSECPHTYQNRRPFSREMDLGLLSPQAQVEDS
The data set is described as follows: Ba/F3-Flt3 (minus IL3) cellular proliferation assay, Alamar Blue. Type of data set: cell-based.

Some results are limits rather than exact numbers.

Sequence of Ba/F3-FGFR1-transfected cells (P11362 whole entry, change not shown): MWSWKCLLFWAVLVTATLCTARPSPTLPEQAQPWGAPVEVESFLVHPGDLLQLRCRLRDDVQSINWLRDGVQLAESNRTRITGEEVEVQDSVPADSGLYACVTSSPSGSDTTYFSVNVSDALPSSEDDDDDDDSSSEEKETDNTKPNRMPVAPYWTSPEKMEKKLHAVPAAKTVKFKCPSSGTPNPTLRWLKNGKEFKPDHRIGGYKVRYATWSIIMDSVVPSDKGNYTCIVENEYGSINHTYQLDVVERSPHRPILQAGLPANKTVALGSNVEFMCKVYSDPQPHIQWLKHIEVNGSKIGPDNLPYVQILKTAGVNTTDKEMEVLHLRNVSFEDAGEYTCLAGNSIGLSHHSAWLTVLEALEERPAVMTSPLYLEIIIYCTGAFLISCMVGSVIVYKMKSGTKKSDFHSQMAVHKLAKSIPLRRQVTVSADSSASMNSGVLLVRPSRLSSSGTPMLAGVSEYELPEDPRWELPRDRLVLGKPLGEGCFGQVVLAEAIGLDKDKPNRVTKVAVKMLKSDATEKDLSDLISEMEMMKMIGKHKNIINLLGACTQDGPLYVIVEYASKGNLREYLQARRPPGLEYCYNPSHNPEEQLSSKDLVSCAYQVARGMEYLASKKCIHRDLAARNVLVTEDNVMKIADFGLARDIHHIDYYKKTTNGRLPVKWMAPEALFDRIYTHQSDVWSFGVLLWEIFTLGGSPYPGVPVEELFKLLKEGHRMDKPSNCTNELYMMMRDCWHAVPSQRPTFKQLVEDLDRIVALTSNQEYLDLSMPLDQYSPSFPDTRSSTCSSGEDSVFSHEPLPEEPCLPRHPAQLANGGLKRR

As a reminder, the melting point is the temperature of the solid-liquid transition. For `COc1cc(OC)cc(N(CCCNC(C)C)c2ccc3ncc(-c4ccnc(NC(=O)OC(C)(C)C)c4)nc3c2)c1` [Compound 137], the melting point was 172 °C. Also, the IC50 in data set [1] was 0.0427 µM. Besides, in data set [2], the “BAF3-FGFR 1 (MIN IL3) 384 well pIC50” value was determined as 5.75. Moreover, the IC50 in data set [3] is 0.00372 µM. The “BAF3-FLT3 (MIN IL3) 384 well pIC50” value in data set [4] (minus IL3) worked out at 5.91.
The matching figures for `COc1cc(OC)cc(N(CC#Cc2ncccc2OC)c2ccc3ncc(-c4cccnc4)nc3c2)c1` [Compound 183]: 141 °C, 0.427 µM, 6.76, 0.155 µM and 5.04.
For the molecule `COc1cc(OC)cc(N(CC2CC2)c2ccc3ncc(C#Cc4cncn4C)nc3c2)c1` [Compound 22], the melting point came out at 166 °C. In addition, the IC50 in data set [1] is 0.275 µM. For the same molecule, in data set [2], the “BAF3-FGFR 1 (MIN IL3) 384 well pIC50” value was less than 5. Further, the IC50 in data set [3] was 0.0282 µM. Moreover, the “BAF3-FLT3 (MIN IL3) 96 well pIC50” value in data set [4] (minus IL3, 96 well) is given as less than 5. Also, in data set [4] (minus IL3, 384 well), the “BAF3-FLT3 (MIN IL3) 384 well pIC50” value is on record as less than 5.
Molecule `COc1cc(OC)cc(N(CCO)c2ccc3ncc(-c4ccc(N5CCNCC5)cc4)nc3c2)c1` [Compound 166] showed a melting point of 194 °C. In addition, the IC50 in data set [1] was 0.00724 µM. Moreover, the IC50 in data set [3] was 0.000513 µM. In data set [4] (minus IL3), the “BAF3-FLT3 (MIN IL3) 384 well pIC50” value was found to be 5.46.
`COc1cc(OC)cc(N(CCN2CCOCC2)c2ccc3ncc(-c4ccc(NC(=O)N5CCOCC5)nc4)nc3c2)c1` [Compound 35] gave a melting point of 153 °C. Moreover, the IC50 in data set [1] was 0.0676 µM. Moreover, in data set [2], the “BAF3-FGFR 1 (MIN IL3) 384 well pIC50” value is listed as 6.36. For the same molecule, in data set [3], the IC50 is 0.012 µM. Also, the “BAF3-FLT3 (MIN IL3) 384 well pIC50” value in data set [4] (minus IL3) is reported as less than 5.
In turn, `COc1cc(OC)cc(N(CC2CC2)c2ccc3ncc(C(=O)Nc4cncn4C)nc3c2)c1` [Compound 27] gave a melting point of 180 °C. Besides, the IC50 in data set [1] is greater than 10 µM. The “BAF3-FGFR 1 (MIN IL3) 96 well pIC50” value in data set [2] (minus IL3, 96 well) is reported as less than 5. Besides, the “BAF3-FGFR 1 (MIN IL3) 384 well pIC50” value in data set [2] is less than 5. Also, the IC50 in data set [3] was 0.269 µM. In data set [4] (minus IL3), the “BAF3-FLT3 (MIN IL3) 96 well pIC50” value is reported as less than 5 and the “BAF3-FLT3 (MIN IL3) 384 well pIC50” value is less than 5.
For the molecule `COc1cc(OC)cc(N(CC2CC2)c2ccc3ncc(N4CCOCC4)nc3c2)c1` [Compound 63], the melting point was 114 °C. Moreover, the IC50 in data set [1] is 2.29 µM. Further, in data set [2], the “BAF3-FGFR 1 (MIN IL3) 384 well pIC50” value is less than 5. In addition, the IC50 in data set [3] is 0.537 µM. Besides, the “BAF3-FLT3 (MIN IL3) 96 well pIC50” value in data set [4] (minus IL3, 96 well) was less than 5. Moreover, in data set [4] (minus IL3, 384 well), the “BAF3-FLT3 (MIN IL3) 384 well pIC50” value is reported as less than 5.
In turn, `COc1cc(OC)cc(N(CCCNCC(F)(F)F)c2ccc3ncc(-c4cnc(OC)nc4)nc3c2)c1` [Compound 26] showed a melting point of 96 °C. Further, in data set [1], the IC50 was 0.479 µM. Moreover, the “BAF3-FGFR 1 (MIN IL3) 384 well pIC50” value in data set [2] was 5.13. Also, the IC50 in data set [3] was 0.112 µM.
Consider `COc1cc(OC)cc(N(CCCO)c2ccc3ncc(-c4ccnc(C(=O)NCCCCCN)c4)nc3c2)c1` [Compound 130], for which the melting point is 161 °C. Besides, the IC50 in data set [1] is 0.151 µM. Moreover, the “BAF3-FGFR 1 (MIN IL3) 384 well pIC50” value in data set [2] was 5.1. Moreover, the IC50 in data set [3] is 0.0174 µM. The “BAF3-FLT3 (MIN IL3) 384 well pIC50” value in data set [4] (minus IL3) was less than 5.
The matching figures for `COc1cc(OC)cc(N(CCCO)c2ccc3ncc(-c4ccnc(C(=O)N5CCOCC5)c4)nc3c2)c1` [Compound 43]: 190 °C, 0.0457 µM, 6.28, 0.0158 µM and less than 5.
The like results for `COc1cc(OC)cc(N(CCO)c2ccc3ncc(-c4ccc(N5CCOCC5)nc4)nc3c2)c1` [Compound 19] were, in that order, 193 °C, 0.0178 µM, 6.41, 0.00389 µM and less than 5.
The like results for `COc1cc(OC)cc(N(CCN2CCOCC2)c2ccc3ncc(-c4ccc(N)nc4)nc3c2)c1` [Compound 169] were, in that order, 164 °C, 0.0537 µM, 6.37, 0.00871 µM and less than 5.
`COc1cc(OC)cc(N(CCCNCC(F)(F)F)c2ccc3ncc(-c4ccnc(C(=O)NCCCN)c4)nc3c2)c1` [Compound 148] had a melting point of 87 °C. Besides, in data set [1], the IC50 was 0.603 µM. Also, the “BAF3-FGFR 1 (MIN IL3) 384 well pIC50” value in data set [2] is reported as less than 5. Also, the IC50 in data set [3] was 0.0363 µM. Moreover, the “BAF3-FLT3 (MIN IL3) 384 well pIC50” value in data set [4] (minus IL3) is on record as less than 5.
As to `COc1cc(OC)cc(N(CCN)c2ccc3ncc(-c4ccn(C)c4)nc3c2)c1` [Compound 79], the melting point stood at 106 °C. Moreover, the IC50 in data set [1] was 0.00851 µM. The “BAF3-FGFR 1 (MIN IL3) 384 well pIC50” value in data set [2] was determined as 6.9. Moreover, in data set [3], the IC50 was 0.0012 µM.
The matching figures for `COc1cc(OC)cc(N(CCCO)c2ccc3ncc(-c4ccnc(Cl)c4)nc3c2)c1` [Compound 136]: 175 °C, 0.0977 µM, 5.63 and 0.024 µM.
`COc1cc(OC)cc(N(CCNC(C)C)c2ccc3ncc(N4CCC(CN)CC4)nc3c2)c1` [Compound 67]: the IC50 in data set [1] is 0.2 µM; in data set [3] it was 0.00331 µM. Further, the “BAF3-FGFR 1 (MIN IL3) 384 well pIC50” value in data set [2] stood at 6.23. Besides, in data set [4] (minus IL3), the “BAF3-FLT3 (MIN IL3) 384 well pIC50” value was found to be 5.
`COc1cc(OC)cc(N(CCNC(C)C)c2ccc3ncc(-c4ccnn4C4CCCCO4)nc3c2)c1` (centres unmarked) [Compound 188] displayed a melting point of 122 °C. In addition, the IC50 in data set [1] was 0.0708 µM. Also, the “BAF3-FGFR 1 (MIN IL3) 384 well pIC50” value in data set [2] is 6.46. Besides, the IC50 in data set [3] is 0.01 µM.
The matching figures for `COc1cc(OC)cc(N(CCCO)c2ccc3ncc(-c4ccnc(F)c4)nc3c2)c1` [Compound 142]: 155 °C, 0.0646 µM, 5.64 and 0.0126 µM.
Turning to `COc1cc(OC)cc(N(CCO)c2ccc3ncc(C4CCN(C(=O)OC(C)(C)C)CC4)nc3c2)c1` [Compound 185], the IC50 in data set [1] was greater than 1 µM; in data set [3], 0.316 µM. For the same molecule, the “BAF3-FGFR 1 (MIN IL3) 384 well pIC50” value in data set [2] is less than 5. In data set [4] (minus IL3), the “BAF3-FLT3 (MIN IL3) 384 well pIC50” value is less than 5.
Regarding `COCC(CN(c1cc(OC)cc(OC)c1)c1ccc2ncc(-c3cccnc3)nc2c1)OC(C)=O` (single isomer, unassigned) [Compound 52], the IC50 in data set [1] is 0.407 µM; in data set [3], 0.0871 µM. In addition, the “BAF3-FGFR 1 (MIN IL3) 384 well pIC50” value in data set [2] was 5.96. Further, the “BAF3-FLT3 (MIN IL3) 384 well pIC50” value in data set [4] (minus IL3) was less than 5.
